Experiments:
[1] = target: EGFR (human), P00533 [L858R]
EGFR (human) [2] = target: EGFR (human) (UniProt P00533); settings: hcc827
[3] = target: EGFR (human), P00533 [WT]
EGFR (human) [4] = target: EGFR (human) (UniProt P00533); settings: h1975
EGFR (human) [5] = target: EGFR (human) (UniProt P00533); settings: a549

EGFR (human), sequence (P00533 whole entry, looked up): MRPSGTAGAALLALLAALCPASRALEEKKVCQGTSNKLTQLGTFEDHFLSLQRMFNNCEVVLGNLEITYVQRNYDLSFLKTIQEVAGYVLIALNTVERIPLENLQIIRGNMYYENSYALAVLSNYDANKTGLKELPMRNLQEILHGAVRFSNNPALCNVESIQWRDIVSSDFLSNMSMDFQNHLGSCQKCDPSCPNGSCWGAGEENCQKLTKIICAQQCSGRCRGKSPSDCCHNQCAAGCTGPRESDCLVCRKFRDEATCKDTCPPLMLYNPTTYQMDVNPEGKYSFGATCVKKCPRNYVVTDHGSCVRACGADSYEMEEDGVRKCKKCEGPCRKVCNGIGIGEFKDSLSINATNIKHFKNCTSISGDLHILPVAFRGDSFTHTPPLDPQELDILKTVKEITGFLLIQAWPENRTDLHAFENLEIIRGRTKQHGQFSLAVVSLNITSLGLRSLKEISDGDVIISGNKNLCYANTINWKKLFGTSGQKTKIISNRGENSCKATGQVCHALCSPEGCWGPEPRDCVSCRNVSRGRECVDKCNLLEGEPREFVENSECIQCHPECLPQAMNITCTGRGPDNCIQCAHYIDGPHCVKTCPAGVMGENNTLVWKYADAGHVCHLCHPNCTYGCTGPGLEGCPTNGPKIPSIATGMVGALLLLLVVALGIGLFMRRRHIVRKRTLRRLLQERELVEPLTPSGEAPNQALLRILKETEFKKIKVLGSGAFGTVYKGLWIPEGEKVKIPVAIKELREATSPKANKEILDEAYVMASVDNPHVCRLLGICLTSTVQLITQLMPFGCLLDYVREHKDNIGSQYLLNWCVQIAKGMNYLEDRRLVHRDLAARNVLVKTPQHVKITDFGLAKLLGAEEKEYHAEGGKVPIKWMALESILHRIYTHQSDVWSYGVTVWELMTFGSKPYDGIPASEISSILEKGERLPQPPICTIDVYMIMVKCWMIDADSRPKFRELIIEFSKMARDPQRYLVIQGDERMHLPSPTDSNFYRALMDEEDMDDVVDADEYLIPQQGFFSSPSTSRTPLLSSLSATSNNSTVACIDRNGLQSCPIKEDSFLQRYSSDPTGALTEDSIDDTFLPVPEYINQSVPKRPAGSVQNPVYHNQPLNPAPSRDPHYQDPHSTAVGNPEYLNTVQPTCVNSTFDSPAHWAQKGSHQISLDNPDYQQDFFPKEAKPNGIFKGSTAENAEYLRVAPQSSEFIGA
EGFR (human), P00533 [WT], sequence (P00533 whole entry, looked up): as above
EGFR (human), P00533 [L858R], sequence (P00533 whole entry L858R, looked up): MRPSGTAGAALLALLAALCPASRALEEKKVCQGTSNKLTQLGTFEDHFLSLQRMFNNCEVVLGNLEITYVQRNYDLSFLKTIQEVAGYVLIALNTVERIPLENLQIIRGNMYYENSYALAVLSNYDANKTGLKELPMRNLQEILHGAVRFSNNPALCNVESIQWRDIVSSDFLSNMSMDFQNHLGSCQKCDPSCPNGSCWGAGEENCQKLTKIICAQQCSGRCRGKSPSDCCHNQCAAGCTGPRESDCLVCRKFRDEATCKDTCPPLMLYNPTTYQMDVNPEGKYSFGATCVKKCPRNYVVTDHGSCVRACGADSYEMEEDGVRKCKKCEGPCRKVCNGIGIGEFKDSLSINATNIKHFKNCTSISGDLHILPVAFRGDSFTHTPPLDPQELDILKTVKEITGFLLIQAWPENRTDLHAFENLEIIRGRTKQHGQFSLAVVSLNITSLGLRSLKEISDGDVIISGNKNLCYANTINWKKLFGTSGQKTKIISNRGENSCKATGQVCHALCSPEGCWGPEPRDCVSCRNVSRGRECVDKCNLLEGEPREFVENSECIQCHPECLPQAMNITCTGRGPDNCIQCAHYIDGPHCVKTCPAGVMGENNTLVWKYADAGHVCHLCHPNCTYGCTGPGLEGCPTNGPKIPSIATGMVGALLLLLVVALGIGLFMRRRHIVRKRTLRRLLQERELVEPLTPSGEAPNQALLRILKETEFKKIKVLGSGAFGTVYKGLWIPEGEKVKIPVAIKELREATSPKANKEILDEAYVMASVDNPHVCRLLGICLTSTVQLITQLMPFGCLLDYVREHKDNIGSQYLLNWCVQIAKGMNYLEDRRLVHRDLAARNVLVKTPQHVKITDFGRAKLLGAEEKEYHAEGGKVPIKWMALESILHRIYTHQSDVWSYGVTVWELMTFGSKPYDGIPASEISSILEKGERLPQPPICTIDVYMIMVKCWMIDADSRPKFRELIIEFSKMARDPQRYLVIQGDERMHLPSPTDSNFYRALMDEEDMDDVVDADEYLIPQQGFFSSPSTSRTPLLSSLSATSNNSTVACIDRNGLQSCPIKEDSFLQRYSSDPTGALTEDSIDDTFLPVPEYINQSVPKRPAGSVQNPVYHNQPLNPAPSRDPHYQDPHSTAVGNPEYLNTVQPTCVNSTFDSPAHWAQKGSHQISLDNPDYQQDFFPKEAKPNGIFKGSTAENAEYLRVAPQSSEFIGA

Compound	IC50 [1] [nM]	IC50 (EGFR (human) [2]) [nM]	IC50 [3] [nM]	IC50 (EGFR (human) [4]) [nM]	IC50 (EGFR (human) [5]) [nM]
COc1cc2c(Oc3ccc(NC(=O)C4=C(C)N(C)C(c5ccccc5)C4=O)cc3F)ccnc2cc1OCCCN1CCN(C)CC1 (configuration not stated)	> 16000	2580	7670	1060	1240
COc1cc2c(Oc3ccc(NC(=O)C4=C(C)N(C)C(c5ccccc5)C4=O)cc3F)ccnc2cc1OCCCN1CCOCC1 (configuration not stated)	> 16000	2510	> 16000	1460	1190
COc1cc2c(Oc3ccc(NS(=O)(=O)c4ccc(-c5cnn(C)c5)cc4)cc3F)ccnc2cc1OCCCN1CCN(C)CC1				> 10000	> 10000

— the Kinase Knowledgebase extract (Sharma et al. 2016)
